US20260092070A1, “INHIBITORS OF CANINE JANUS KINASE AND USES THEREOF” (ANIMOL DISCOVERY, INC., priority 2023, published 2026)
Where two headings read alike, the source gives them in different places.

How the values were obtained:
[1] = biological target: T1, Human JAK-3 (Homo sapiens, UniProt P52333); test: JAK enzymatic assay (Eurofins KinaseProfiler/IC50Profiler, radiometric), JAK-3; assay type: biochemical; conditions: human JAK-3 enzyme, 9 concentrations; read-out: JAK3 affinity (IC50) category
T1 construct: purchased Eurofins Discovery (KinaseProfiler / IC50Profiler service)
T1 sequence (P52333 1-1124): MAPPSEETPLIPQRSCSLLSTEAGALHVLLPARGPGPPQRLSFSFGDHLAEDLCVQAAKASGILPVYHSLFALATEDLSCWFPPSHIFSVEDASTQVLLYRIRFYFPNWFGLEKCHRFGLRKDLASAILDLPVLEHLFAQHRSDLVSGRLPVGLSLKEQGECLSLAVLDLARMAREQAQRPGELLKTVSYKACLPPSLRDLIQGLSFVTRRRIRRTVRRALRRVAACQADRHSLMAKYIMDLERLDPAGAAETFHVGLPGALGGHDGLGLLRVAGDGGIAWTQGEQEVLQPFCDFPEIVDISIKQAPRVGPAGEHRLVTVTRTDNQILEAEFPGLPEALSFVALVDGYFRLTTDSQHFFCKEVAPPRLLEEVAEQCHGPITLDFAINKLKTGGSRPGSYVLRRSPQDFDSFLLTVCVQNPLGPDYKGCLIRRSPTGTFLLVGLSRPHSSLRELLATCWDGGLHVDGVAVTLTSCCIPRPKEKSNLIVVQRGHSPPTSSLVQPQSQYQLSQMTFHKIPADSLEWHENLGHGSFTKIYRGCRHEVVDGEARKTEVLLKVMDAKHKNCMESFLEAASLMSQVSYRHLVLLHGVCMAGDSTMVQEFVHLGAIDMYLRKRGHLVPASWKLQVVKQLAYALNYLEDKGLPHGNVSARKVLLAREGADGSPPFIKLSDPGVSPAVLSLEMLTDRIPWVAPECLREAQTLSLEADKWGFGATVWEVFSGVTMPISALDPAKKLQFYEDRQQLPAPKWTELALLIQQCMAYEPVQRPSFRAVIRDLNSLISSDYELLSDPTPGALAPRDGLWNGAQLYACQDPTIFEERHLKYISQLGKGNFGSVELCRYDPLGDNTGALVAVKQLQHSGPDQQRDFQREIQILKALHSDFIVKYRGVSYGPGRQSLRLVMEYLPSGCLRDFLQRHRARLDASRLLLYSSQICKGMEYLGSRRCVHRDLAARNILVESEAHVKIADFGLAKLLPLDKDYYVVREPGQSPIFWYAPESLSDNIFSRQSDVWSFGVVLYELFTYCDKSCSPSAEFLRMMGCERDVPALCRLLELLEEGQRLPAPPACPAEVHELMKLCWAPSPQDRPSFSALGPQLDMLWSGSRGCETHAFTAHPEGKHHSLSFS
Description: (§1) All enzyme assays were conducted according to Eurofins Discovery's KinaseProfiler™ and IC50Profiler™ services.
(SEQ ID NO: 3) peptide substrate, 10 mM magnesium acetate and [gamma-33P]-ATP (specific activity and concentration as required). The reaction was initiated by the addition of the Mg/ATP mix. After incubation for 40 minutes at room temperature, the reaction was stopped by the addition of phosphoric acid to a concentration of 0.5%. An aliquot of the reaction was then spotted onto a filter and washed four times for 4 minutes in 0.425% phosphoric acid and once with methanol prior to drying and scintillation counting.
(§2) Data was then imported into an internal application where each data point was expressed as % inhibition based on uninhibited and no enzyme controls.

[2] = biological target: T2, JAK-1 (Homo sapiens, UniProt P23458); test: JAK enzymatic assay (Eurofins KinaseProfiler/IC50Profiler, radiometric), JAK-1; conditions: for JAK1/JAK2 selectivity: selectivity IC50 ratio for JAK1 versus JAK2, human enzymes
Target sequence in this assay (P23458 whole entry): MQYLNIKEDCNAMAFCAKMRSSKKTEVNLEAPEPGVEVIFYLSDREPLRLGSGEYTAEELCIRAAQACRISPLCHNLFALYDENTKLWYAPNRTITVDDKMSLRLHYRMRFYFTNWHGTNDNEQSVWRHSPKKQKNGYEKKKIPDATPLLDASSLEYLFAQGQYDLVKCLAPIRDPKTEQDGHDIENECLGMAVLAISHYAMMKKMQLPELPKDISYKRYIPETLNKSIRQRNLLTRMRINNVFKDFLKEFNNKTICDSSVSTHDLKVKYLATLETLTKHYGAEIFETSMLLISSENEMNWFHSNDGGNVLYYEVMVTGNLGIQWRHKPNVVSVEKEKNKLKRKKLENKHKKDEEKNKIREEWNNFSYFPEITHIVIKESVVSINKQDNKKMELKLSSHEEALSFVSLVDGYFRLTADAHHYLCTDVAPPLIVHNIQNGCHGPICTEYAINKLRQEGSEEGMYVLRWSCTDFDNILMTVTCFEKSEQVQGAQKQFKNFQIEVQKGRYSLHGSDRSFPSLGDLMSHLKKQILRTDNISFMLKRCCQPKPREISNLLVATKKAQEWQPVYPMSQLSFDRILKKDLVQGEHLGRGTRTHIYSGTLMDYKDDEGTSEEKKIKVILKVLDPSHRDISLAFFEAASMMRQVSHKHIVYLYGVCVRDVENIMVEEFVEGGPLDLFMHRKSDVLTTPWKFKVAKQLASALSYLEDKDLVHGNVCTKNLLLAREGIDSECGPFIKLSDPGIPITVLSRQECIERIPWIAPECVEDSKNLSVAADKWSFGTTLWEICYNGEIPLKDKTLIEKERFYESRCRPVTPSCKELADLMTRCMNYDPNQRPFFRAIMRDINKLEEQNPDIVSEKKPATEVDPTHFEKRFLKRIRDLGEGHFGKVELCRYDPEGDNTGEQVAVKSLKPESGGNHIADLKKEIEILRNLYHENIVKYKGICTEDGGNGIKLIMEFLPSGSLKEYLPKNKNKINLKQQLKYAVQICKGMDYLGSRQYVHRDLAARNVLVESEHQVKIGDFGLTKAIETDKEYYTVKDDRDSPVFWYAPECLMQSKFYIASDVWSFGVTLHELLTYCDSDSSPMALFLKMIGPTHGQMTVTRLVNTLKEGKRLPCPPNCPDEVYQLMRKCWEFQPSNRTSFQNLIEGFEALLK
Description: as §1
(SEQ ID NO.: 1) peptide substrate, 10 mM magnesium acetate and [gamma-33P]-ATP (specific activity and concentration as required). The reaction was initiated by the addition of the Mg/ATP mix. After incubation for 40 minutes at room temperature, the reaction was stopped by the addition of phosphoric acid to a concentration of 0.5%. An aliquot of the reaction was then spotted onto a filter and washed four times for 4 minutes in 0.425% phosphoric acid and once with methanol prior to drying and scintillation counting. A known inhibitor, Staurosporine, was used as a positive control for the assay.
Data was then imported into an internal application where each data point was expressed as % inhibition based on uninhibited and no enzyme controls. […] Inhibition values for the JAK enzymes (IC50 values) for each compound were stratified into four groups.

[3] = biological target: T3, Human TYK-2 (Homo sapiens, UniProt P29597); test: JAK enzymatic assay (Eurofins KinaseProfiler/IC50Profiler, radiometric), TYK-2; assay type: biochemical; conditions: human TYK-2 enzyme, 9 concentrations; read-out: TYK2 affinity (IC50) category
T3 construct: purchased Eurofins Discovery (KinaseProfiler / IC50Profiler service)
Description: Human TYK-2 (Uniprot ID: P29597) was incubated with 8 mM MOPS pH 7.0, 0.2 mM EDTA, 250 μM […]

[4] = biological target: Human JAK-2 (Homo sapiens, UniProt O60674); test: JAK enzymatic assay (Eurofins KinaseProfiler/IC50Profiler, radiometric), JAK-2; assay type: biochemical; conditions: human JAK-2 enzyme, 9 concentrations; read-out: JAK2 affinity (IC50) category
Description: as §1
(SEQ ID NO: 2) peptide substrate, 10 mM magnesium acetate and [gamma-33P]-ATP (specific activity and concentration as required). The reaction was initiated by the addition of the Mg/ATP mix. After incubation for 40 minutes at room temperature, the reaction was stopped by the addition of phosphoric acid to a concentration of 0.5%. An aliquot of the reaction was then spotted onto a filter and washed four times for 4 minutes in 0.425% phosphoric acid and once with methanol prior to drying and scintillation counting.
as §2

[5] = system: cJAK-1; test: Selectivity of oclacitinib among canine JAK subtypes; assay type: biochemical
[6] = biological target: T2, JAK-1; conditions: Gonzales et al., 2014; cited from earlier work
Target sequence in this assay (P23458 whole entry, species assumed): as the sequence (P23458 whole entry) above

[7] = system: JAK1-dependent cytokines (IL-2, IL-4, IL-6, IL-13, IL-31); conditions: IL-2, IL-4, IL-6, IL-13 and IL-31; Gonzales et al., 2014; read-out: IC50 for inhibiting the function of JAK1-dependent cytokines; cited from earlier work

T3 sequence (P29597 whole entry): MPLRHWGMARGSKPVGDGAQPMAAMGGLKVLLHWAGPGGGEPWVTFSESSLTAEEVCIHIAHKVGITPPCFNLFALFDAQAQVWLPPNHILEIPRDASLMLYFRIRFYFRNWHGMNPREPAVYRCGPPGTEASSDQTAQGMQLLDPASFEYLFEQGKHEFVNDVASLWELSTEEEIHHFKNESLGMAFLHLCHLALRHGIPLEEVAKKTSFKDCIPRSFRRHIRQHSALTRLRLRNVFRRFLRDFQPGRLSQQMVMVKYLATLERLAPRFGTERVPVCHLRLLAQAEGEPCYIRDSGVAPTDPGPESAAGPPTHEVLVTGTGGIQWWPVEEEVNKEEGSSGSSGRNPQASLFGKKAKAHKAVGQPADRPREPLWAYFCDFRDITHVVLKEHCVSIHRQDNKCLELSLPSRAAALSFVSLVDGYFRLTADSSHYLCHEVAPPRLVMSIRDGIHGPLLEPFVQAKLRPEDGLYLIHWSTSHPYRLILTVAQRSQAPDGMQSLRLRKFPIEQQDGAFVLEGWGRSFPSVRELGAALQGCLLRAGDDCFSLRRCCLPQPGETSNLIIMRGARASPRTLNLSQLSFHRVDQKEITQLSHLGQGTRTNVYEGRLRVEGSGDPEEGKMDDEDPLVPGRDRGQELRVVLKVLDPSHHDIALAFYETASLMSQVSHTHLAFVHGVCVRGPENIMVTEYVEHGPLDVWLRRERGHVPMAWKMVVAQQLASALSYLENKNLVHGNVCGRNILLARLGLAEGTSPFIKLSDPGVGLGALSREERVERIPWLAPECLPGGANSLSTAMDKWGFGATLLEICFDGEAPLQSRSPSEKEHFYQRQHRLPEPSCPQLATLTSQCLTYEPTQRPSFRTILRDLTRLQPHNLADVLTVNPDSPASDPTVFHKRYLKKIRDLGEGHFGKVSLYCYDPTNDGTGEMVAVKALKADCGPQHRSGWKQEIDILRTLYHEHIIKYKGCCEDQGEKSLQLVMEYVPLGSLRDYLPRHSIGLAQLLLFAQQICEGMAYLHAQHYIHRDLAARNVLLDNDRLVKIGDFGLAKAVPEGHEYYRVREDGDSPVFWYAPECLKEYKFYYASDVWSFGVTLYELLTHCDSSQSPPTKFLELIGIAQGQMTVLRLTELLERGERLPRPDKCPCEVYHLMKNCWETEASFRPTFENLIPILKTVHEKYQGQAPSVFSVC
Sequence of Human JAK-2 (O60674 whole entry): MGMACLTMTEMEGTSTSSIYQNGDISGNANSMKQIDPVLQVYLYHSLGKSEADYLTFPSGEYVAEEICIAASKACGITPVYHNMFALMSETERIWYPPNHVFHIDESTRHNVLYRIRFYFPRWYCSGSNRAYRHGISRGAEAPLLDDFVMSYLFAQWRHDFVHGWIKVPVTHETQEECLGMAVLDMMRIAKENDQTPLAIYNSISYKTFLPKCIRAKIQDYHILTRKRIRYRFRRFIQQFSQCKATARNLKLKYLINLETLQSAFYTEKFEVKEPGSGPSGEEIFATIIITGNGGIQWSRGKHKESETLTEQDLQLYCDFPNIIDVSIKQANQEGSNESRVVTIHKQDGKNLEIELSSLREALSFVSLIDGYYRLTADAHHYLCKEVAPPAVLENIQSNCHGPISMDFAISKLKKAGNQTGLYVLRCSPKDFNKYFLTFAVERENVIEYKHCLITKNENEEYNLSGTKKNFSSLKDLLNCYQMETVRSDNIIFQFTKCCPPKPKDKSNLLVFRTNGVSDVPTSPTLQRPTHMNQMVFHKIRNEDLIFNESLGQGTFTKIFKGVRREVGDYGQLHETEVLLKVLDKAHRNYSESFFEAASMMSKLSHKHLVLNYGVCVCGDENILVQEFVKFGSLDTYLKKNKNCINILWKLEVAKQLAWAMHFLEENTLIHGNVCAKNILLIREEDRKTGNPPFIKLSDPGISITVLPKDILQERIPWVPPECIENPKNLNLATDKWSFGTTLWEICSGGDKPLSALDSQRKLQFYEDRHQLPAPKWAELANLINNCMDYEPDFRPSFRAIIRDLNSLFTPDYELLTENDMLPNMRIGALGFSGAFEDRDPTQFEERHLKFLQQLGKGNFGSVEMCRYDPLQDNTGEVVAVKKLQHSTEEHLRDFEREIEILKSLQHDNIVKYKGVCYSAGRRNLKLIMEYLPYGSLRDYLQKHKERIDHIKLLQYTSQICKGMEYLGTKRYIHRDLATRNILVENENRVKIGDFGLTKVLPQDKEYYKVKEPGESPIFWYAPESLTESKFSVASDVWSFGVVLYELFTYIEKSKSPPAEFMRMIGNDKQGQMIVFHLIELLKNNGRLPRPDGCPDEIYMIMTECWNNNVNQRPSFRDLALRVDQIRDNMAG

Row | SMILES | IC50 [1] | IC50 [2] | IC50 [3] | IC50 [4] | JAK1/JAK2 selectivity [2] | selectivity toward cJAK-2, cJAK-3, and cJAK-4 relative to cJAK-1 [5] | IC50 [6] | IC50 [7]
1 | COc1cc(NC(=O)CN2CCN(c3ncnc4[nH]ccc34)CC2)ccc1S(=O)(=O)N(C)C [Compound 1, 2-(4-(7H-pyrrolo[2,3-d]pyrimidin-4-yl)piperazin-1-yl)-N-(4-(N, N-dimethylsulfamoyl)-3-methoxyphenyl) acetamide] | > 1 µM | 0.5 to 1 µM | > 1 µM | > 1 µM |  |  |  | 
2 | CNS(=O)(=O)c1ccc(NC(=O)CN2CCN(c3ncnc4[nH]ccc34)CC2)cc1 [Compound 8, 2-(4-(7H-pyrrolo[2,3-d]pyrimidin-4-yl)piperazin-1-yl)-N-(4-(N-methylsulfamoyl)phenyl)acetamide] | 0.5 to 1 µM | < 0.25 µM | > 1 µM | 0.5 to 1 µM | 7 |  |  | 
3 | CC(C)NS(=O)(=O)c1ccc(NC(=O)C(C)N2CCN(c3ncnc4[nH]ccc34)CC2)cc1 (centres unmarked) [Compound 17, 2-(4-(7H-pyrrolo[2,3-d]pyrimidin-4-yl)piperazin-1-yl)-N-(4-(N-isopropylsulfamoyl)phenyl)propenamide] | > 1 µM | 0.25 to 0.5 µM | > 1 µM | > 1 µM | 7 |  |  | 
4 | CC(C(=O)Nc1ccc(S(=O)(=O)N2CCCCC2)cc1)N1CCN(c2ncnc3[nH]ccc23)CC1 (centres unmarked) [Compound 20, 2-(4-(7H-pyrrolo[2,3-d]pyrimidin-4-yl)piperazin-1-yl)-N-(4-(piperidin-1-ylsulfonyl)phenyl)propenamide] | > 1 µM | 0.5 to 1 µM | 0.5 to 1 µM | > 1 µM | 2 |  |  | 
5 | CNS(=O)(=O)C[C@H]1CC[C@H](N(C)c2ncnc3[nH]ccc23)CC1.O=C(O)/C=C\C(=O)O [Oclacitinib, N-methyl[trans-4-(methyl-7H-pyrrolo[2,3-d]pyrimidin-4-ylamino)cyclohexyl]methanesulfonamide (2Z)-2-butenedioate] |  |  |  |  |  | relatively low | 0.01 µM | 0.036 to 0.249 µM
6 | O=C(CN1CCN(c2ncnc3[nH]ccc23)CC1)Nc1ccc(S(=O)(=O)NC2CC2)cc1 [Compound 7, 2-(4-(7H-pyrrolo[2,3-d]pyrimidin-4-yl)piperazin-1-yl)-N-(4-(N-cyclopropylsulfamoyl)phenyl)acetamide] | > 1 µM | < 0.25 µM | > 1 µM | 0.5 to 1 µM | 13 |  |  | 
7 | CNS(=O)(=O)c1ccc(N(C)C(=O)CN2CCN(c3ncnc4[nH]ccc34)CC2)cc1 [Compound 14, 2-(4-(7H-pyrrolo[2,3-d]pyrimidin-4-yl)piperazin-1-yl)-N-methyl-N-(4-(N-methylsulfamoyl)phenyl)acetamide] | > 1 µM | 0.25 to 0.5 µM | > 1 µM | > 1 µM | 17 |  |  | 
8 | CNS(=O)(=O)c1ccc(NC(=O)CN2CCN(c3ncnc4[nH]ccc34)CC2)cc1F [Compound 9, 2-(4-(7H-pyrrolo[2,3-d]pyrimidin-4-yl)piperazin-1-yl)-N-(3-fluoro-4-(N-methylsulfamoyl)phenyl)acetamide] | 0.5 to 1 µM | < 0.25 µM | 0.5 to 1 µM | 0.5 to 1 µM | 12 |  |  | 

Further lines, with some results ahead:

Row | IC50 [1] | IC50 [2] | IC50 [3] | IC50 [4] | SMILES | JAK1/JAK2 selectivity [2] | selectivity toward cJAK-2, cJAK-3, and cJAK-4 relative to cJAK-1 [5] | IC50 [6] | IC50 [7]
9 | > 1 µM | < 0.25 µM | > 1 µM | > 1 µM | CC(C)(C)NS(=O)(=O)c1ccc(NC(=O)CN2CCN(c3ncnc4[nH]ccc34)CC2)cc1 [Compound 2, 2-(4-(7H-pyrrolo[2,3-d]pyrimidin-4-yl)piperazin-1-yl)-N-(4-(N-(tert-butyl)sulfamoyl)phenyl)acetamide] | 25 |  |  | 
10 | 0.5 to 1 µM | < 0.25 µM | > 1 µM | > 1 µM | CCCCNS(=O)(=O)c1ccc(NC(=O)CN2CCN(c3ncnc4[nH]ccc34)CC2)cc1 [Compound 11, 2-(4-(7H-pyrrolo[2,3-d]pyrimidin-4-yl)piperazin-1-yl)-N-(4-(N-butylsulfamoyl)phenyl)acetamide] | 9 |  |  | 
11 | > 1 µM | < 0.25 µM | > 1 µM | > 1 µM | CCNS(=O)(=O)c1ccc(NC(=O)CN2CCN(c3ncnc4[nH]ccc34)CC2)cc1 [Compound 13, 2-(4-(7H-pyrrolo[2,3-d]pyrimidin-4-yl)piperazin-1-yl)-N-(4-(N-ethylsulfamoyl)phenyl)acetamide] | 13 |  |  | 
12 | > 1 µM | 0.25 to 0.5 µM | > 1 µM | > 1 µM | COCCN(C)S(=O)(=O)c1ccc(NC(=O)CN2CCN(c3ncnc4[nH]ccc34)CC2)cc1 [Compound 10, 2-(4-(7H-pyrrolo[2,3-d]pyrimidin-4-yl)piperazin-1-yl)-N-(4-(N-(2-methoxyethyl)-N-methylsulfamoyl)phenyl)acetamide] | 15 |  |  | 
13 | > 1 µM | 0.25 to 0.5 µM | > 1 µM | > 1 µM | CN(C)S(=O)(=O)c1ccc(NC(=O)CN2CCN(c3ncnc4[nH]ccc34)CC2)cc1F [Compound 5, 2-(4-(7H-pyrrolo[2,3-d]pyrimidin-4-yl)piperazin-1-yl)-N-(4-(N,N-dimethylsulfamoyl)-3-fluorophenyl)acetamide] |  |  |  | 
14 | 0.5 to 1 µM | 0.25 to 0.5 µM | > 1 µM | < 0.25 µM | CC(C)NS(=O)(=O)c1ccc(NC(=O)[C@@H](C)N2CCN(c3ncnc4[nH]ccc34)CC2)cc1 [Compound 18, (R)-2-(4-(7H-pyrrolo[2,3-d]pyrimidin-4-yl)piperazin-1-yl)-N-(4-(N-isopropylsulfamoyl)phenyl)propanamide] | 4 |  |  | 
15 | 0.5 to 1 µM | < 0.25 µM | > 1 µM | 0.5 to 1 µM | CCCNS(=O)(=O)c1ccc(NC(=O)CN2CCN(c3ncnc4[nH]ccc34)CC2)cc1 [Compound 12, 2-(4-(7H-pyrrolo[2,3-d]pyrimidin-4-yl)piperazin-1-yl)-N-(4-(N-propylsulfamoyl)phenyl)acetamide] | 4 |  |  | 
